The values below are quoted from earlier work in patent US20240124437A1, “INJECTABLE LURASIDONE SUSPENSION AND PREPARATION METHOD THEREFOR” (Sichuan Kelun Pharmaceutical Research Institute Co., Ltd., priority 2021, published 2024).

For this series the following is noted: oral tablets.

Consider `O=C1[C@@H]2[C@H]3CC[C@H](C3)[C@@H]2C(=O)N1C[C@@H]1CCCC[C@H]1CN1CCN(c2nsc3ccccc23)CC1` [lurasidone], for which the oral bioavailability is reported as 9%-19%.
